Results on 90 molecules are retold here after the COVID Moonshot data (paper PMC11187573), “Identification of SARS-CoV-2 Mpro inhibitors through deep reinforcement learning for de novo drug design and computational chemistry approaches” (RSC Medicinal Chemistry, 2024).

The target of the assay is SARS-CoV-2 Main Protease (SARS-CoV-2) (UniProt P0DTD1). The following applies: for inhibition: 50.0 µM.

Structures are written as SMILES.

On to `CCC(=O)Nc1ccc(N(Cc2ccccc2)C(=O)Nn2nnc3ccccc32)cc1`, for which the IC50 (in general, the midpoint of a concentration-inhibition curve) stood at 3.73 µM.

`O=C(Cn1nnc2ccccc21)N(Cc1ccccc1)c1ccc(N2CCOCC2)cc1` gave an IC50 of 18.2 µM. Compared with the last molecule, the IC50 is about 4.9-fold higher.

In the case of `Cc1ccncc1NC(=O)Cc1cc(Cl)cc(NC2CCCC2O)c1` (stereo unspecified), the IC50 amounted to 38.9 µM and the inhibition (in general, the drop in the measured response relative to a control, in per cent) turned out to be 61.5%.

In the case of `O=C(Cc1cccc(Cl)c1)Nc1cnccc1C1CC1`, the IC50 came out at 7.4 µM.

`CC(=O)NCc1cc(Cl)cc(CC(=O)Nc2cnccc2C)c1` had an IC50 of 55.5 µM. This IC50 is about 7.5-fold higher than that of the molecule before.

Molecule `Cc1ccncc1NC(=O)Cc1cc(Cl)cc(-c2cnn(C)c2C(F)F)c1` displayed an IC50 of 16 µM.

In the case of `Cc1ccc(NC2=C(c3ccccc3)C(=O)N(Cc3cccnc3)C2=O)cc1Cl`, the IC50 was determined as 32.2 µM.

On to `Cc1cc(C(F)(F)F)nc2n[nH]c(NC(=O)C3CCOc4ccc(Cl)cc43)c12` (stereo unspecified), for which the IC50 is 98.1 µM.

For the molecule `O=C(COc1cccc(Cl)c1)Nc1cncc2ccccc12`, the IC50 was found to be 6.02 µM.

Regarding `O=C1CC(C(=O)Nc2cncc3ccccc23)c2cc(Br)ccc2N1` (stereo unspecified), the IC50 was found to be 1.12 µM.

Take `O=C(Nc1ccccc1)[C@@H](c1ccccc1)N1Cc2ccccc2C1=O` (stereo in doubt): the IC50 was 99.8 µM.

The molecule `O=C(Cc1cccc(Cl)c1)Nc1[nH]nc2cc(F)ccc12` registered an IC50 of 91.5 µM.

The molecule `O=C(c1cncc2ccccc12)N1CCN(c2cccc(Cl)c2)CC1` displayed an IC50 of 0.833 µM.

On to `Cc1ccc(NC2=C(c3ccccc3)C(=O)N(Cc3cccnc3)C2=O)cc1C`, for which the IC50 turned out to be 43.5 µM.

As to `Cc1ccncc1NC(=O)Cc1cc(Cl)cc(CNS(C)(=O)=O)c1`, the IC50 was determined as 32.2 µM.

For `O=C(Nc1cncc2ccccc12)C1COc2ccc(Cl)cc21` (stereo unspecified), the IC50 worked out at 0.509 µM and the inhibition amounted to 77%.

Regarding `COc1ccc(Cl)cc1OCCNC(=O)c1cc(=O)[nH]c2ccccc12`, the IC50 came out at 0.692 µM. In other words, the sub-micromolar range.

Turning to `O=C(CC(C[S][Au])C(=O)[O][Na])[O][Na]` (stereo unspecified), the inhibition was 39.1%.

`C=CC(=O)N(c1ccc(I)cc1)C(C(=O)Nc1ccc(Cl)cc1)c1cncnc1` (stereo unspecified) displayed an IC50 of 2.75 µM. This counts as single-digit micromolar.

`O=C(Nc1cncc2ccccc12)C1CCCc2ccc(Cl)cc21` (stereo unspecified) registered an IC50 of 0.289 µM.

Consider `CC(C)(C)c1ccc(N(C(=O)c2cnc[nH]2)C(C(=O)NCCc2cccc(F)c2)c2cccnc2)cc1` (stereo unspecified), for which the IC50 is 1.05 µM and the inhibition came to 100%.

`O=C(Cc1cc(Cl)cc(Cc2ccn[nH]2)c1)Nc1cncc2ccccc12` returned an IC50 of 9.39 µM.

For the molecule `Cc1ccncc1NC(=O)Cc1cc(Cl)cc(OCc2ncn[nH]2)c1`, the IC50 turned out to be 81 µM.

`C[N+]1=C2C=C(N/C=C/c3ccc(O)cc3)C(=O)c3[nH]cc(c32)CC1` had an inhibition of 8.91%.

As for `Nc1nn(C(=O)C2CCOc3ccc(Cl)cc32)c2cc(F)ccc12` (stereo unspecified), the IC50 amounted to 53.3 µM.

Consider `O=C(Nc1ccc(Cl)cc1)[C@@H](c1ccccc1)N1Cc2ccccc2C1=O` (stereo in doubt), for which the IC50 was found to be 65 µM.

Consider `CC(C)(C)c1ccc(N(C(=O)c2ccc(Cl)o2)C(C(=O)NCCc2cccc(F)c2)c2cccnc2)cc1` (stereo unspecified), for which the IC50 came out at 0.515 µM and the inhibition stood at 69.3%.

`C=C1CCC[C@H]2[C@](C)(CC3=C(O)C(=O)C=C(OC)C3=O)[C@@H](C)CC[C@]12C` (stereo in doubt) registered an inhibition of 2.35%.

In turn, `CC(C)(C)N1C=CN(C(C)(C)C)[CH]1[Au][Cl]` came in with an IC50 of 0.117 µM and an inhibition of 100%.

Molecule `CS(=O)(=O)Nc1cccc(C2=NN(C(=O)CCl)C(c3ccccc3)C2)c1` (stereo unspecified) returned an inhibition of 57.6%.

In turn, `C[N+]1=C2C=C(NCCc3ccc(O)cc3)C(=O)c3[nH]cc(c32)CC1` gave an inhibition of 2.74%.

As to `O=C(Cc1cccc(Cl)c1)Nn1nnc2ccccc21`, the IC50 was 31 µM. In other words, the double-digit micromolar range.

Take `O=C(NC[C@@]1(COc2ccc(C(F)(F)F)cn2)C[C@@H](O)[C@@H](O)C1)Nc1cccnc1`: the inhibition came out at 0%.

Take `O=C(Cc1cncc2ccccc12)N(CCC1CCCCC1)c1cccc(Cl)c1`: the IC50 was determined as 1.02 µM.

In turn, `O=C(Nc1cncc2ccccc12)C1COc2c(Cl)cccc21` (stereo unspecified) registered an IC50 of 5.36 µM.

The molecule `O=C(c1cc(=O)cc[nH]1)N1CCN(c2cccc(Cl)c2)CC1` gave an IC50 of 58.9 µM.

Turning to `Nc1nn(C(=O)Cc2cccc(Cl)c2)c2cccc(F)c12`, the IC50 came to 52.6 µM.

`O=C(Cc1cccc(Cl)c1)Nc1[nH]nc2cccc(F)c12`: the IC50 is 81.8 µM.

For the molecule `CC(C)(O)CC1C2=C(Oc3c1c1c(c4ccccc34)OC(C)(C)C=C1)C(=O)c1ccccc1C2=O` (stereo unspecified), the inhibition came out at 3.92%.

`Cc1ccc(NC2=C(c3ccccc3)C(=O)N(Cc3cccnc3)C2=O)c(C)c1` yielded an IC50 of 54.6 µM.

`Cc1ccn2cnnc2c1NC(=O)Cc1cccc(Cl)c1` yielded an IC50 of 83.4 µM.

`Cc1ccncc1NC(=O)C(CO)c1cccc(Cl)c1` (stereo unspecified): the IC50 stood at 47.3 µM.

For the molecule `COC(=O)C(C(=O)Nc1cnccc1C)c1cccc(Cl)c1` (stereo unspecified), the IC50 was found to be 17.1 µM.

`O=c1ccc2c3ccc(=O)c4c(O)ccc(c5ccc(O)c1c52)c43` registered an inhibition of 42.5%.

Molecule `O=C(Nc1cncc2ccccc12)C1CCOc2ccc(Br)cc21` (stereo unspecified) registered an inhibition of 90.6%.

`Cc1ccncc1N1CCC(c2cccc(Cl)c2)C1=O` (stereo unspecified): the IC50 is 12.9 µM. This counts as double-digit micromolar.

As for `CN(C)c1ccc(N(Cc2cscn2)C(=O)Cn2nnc3ccccc32)cc1`, the IC50 stood at 14.3 µM. This IC50 and that of the molecule before are within 1.5-fold of each other.

`Cc1ccncc1NC(=O)Cc1cc(Cl)cc(NC2CCC(F)(F)C2O)c1` (stereo unspecified) displayed an IC50 of 25.7 µM.

For the molecule `Cc1ccncc1NC(=O)Cc1cc(Cl)cc(-c2ccc(C)c(F)c2F)c1`, the IC50 turned out to be 56.2 µM. This IC50 lies about 2.2-fold higher than the previous one.

`O=C1C(=O)N(Cc2ccccc2)c2ccc([N+](=O)[O-])cc21` gave an IC50 of 26.9 µM.

`COc1ccc2nnn(CC(=O)N(Cc3ccccn3)c3ccc(C4CCNCC4)cc3)c2c1` registered a 50% inhibitory concentration (IC50) of 32.2 µM and an inhibition of 94.8%.

For the molecule `CC12CCCC(O1)c1c(cc3c(c1O)C(=O)c1c(O)cc(O)cc1C3=O)O2` (stereo unspecified), the inhibition was 26.4%.

Molecule `CNC(=O)Nc1ccc(N(Cc2ccsc2)C(=O)Cn2nnc3ccccc32)cc1` showed an IC50 of 15.3 µM.

Molecule `Cc1ccc(N(Cc2cccc(Cl)c2)C(=O)Cn2nnc3ccccc32)cc1` registered an IC50 of 3.3 µM.

For `O=C(c1cc(=O)[nH]c2ccccc12)N1CCN(Cc2cccc(C(F)(F)F)c2)CC1`, the inhibition came out at 24.8%.

Take `COc1ccc(Cl)cc1OCCNC(=O)c1cc(=O)[nH]c2cccc(OC)c12`: the IC50 turned out to be 0.19 µM.

`N#Cc1ccccc1NC(=O)[C@@H](c1ccccc1)N1Cc2ccccc2C1=O` (stereo in doubt): the IC50 was determined as 57.9 µM.

`CN(C)c1ccc(N(Cc2ccccc2)C(=O)Cn2nnc3ccccc32)cc1` registered an IC50 of 1.57 µM. This IC50 lies about 37-fold lower than the previous one.

In turn, `Nc1nn(C(=O)Cc2cccc(Cl)c2)c2ccc(F)cc12` showed an IC50 of 94.2 µM.

As for `O=C1OC(c2cccs2)=N/C1=C\c1ccc(N2CCOCC2)s1`, the IC50 was 0.706 µM and the inhibition worked out at 91.7%.

Molecule `COc1ccccc1OCCC(=O)Nc1cncc2ccccc12` gave an IC50 of 85.4 µM.

Molecule `Cn1c(C(NC(=O)Cc2cc3ccccc3[nH]2)c2cccc(Cl)c2)nc2ccccc21` (stereo unspecified) displayed an IC50 of 31.4 µM.

In turn, `O=C(Cc1cccc(Cl)c1)Nc1cncc2nc[nH]c12` yielded an IC50 of 7.97 µM and an inhibition of 79.5%.

In the case of `O=C(Cc1cncc2ccccc12)Nc1cccc(Cl)c1`, the IC50 came out at 7.2 µM.

`CCc1cc(F)ccc1-c1cc(Cl)cc(CC(=O)Nc2cnccc2C)c1` registered an IC50 of 26 µM.

`O=C(Cc1cncc2ccccc12)Nc1cc(Cl)cc(OC2CCC(=O)N2)c1` (stereo unspecified) had an IC50 of 19.4 µM.

As to `O=C(Cc1cccc(Cl)c1)Nc1cncc2c1CCC2`, the half-maximal inhibitory concentration (IC50) was 4.65 µM.

Take `C[C@H]1O[C@H](C)C2Oc3cc(O)c4c(=O)c5c6c7c8c(cc(=O)c9c(O)c1c2c(c3c47)c98)O[C@@H]6[C@@H](C)O[C@@H]5C` (stereo in doubt): the inhibition came out at 0%.

For the molecule `O=C(Cc1cc(Cl)cc(CC2CC(=O)N2)c1)Nc1cncc2ccccc12` (stereo unspecified), the IC50 worked out at 4.42 µM.

As for `C[C@H]1C[C@@H](C(=O)Nc2cncc3ccccc23)c2cc(Cl)ccc2O1` (stereo in doubt), the IC50 turned out to be 45.4 µM.

`COc1cc2c(c3ccccc13)OC(C)(C)CC2Oc1cc2c(cc1C)C(=O)c1ccccc1C2=O` (stereo unspecified) yielded an inhibition of 4%.

For the molecule `CC(C)C1=C(O)C(=O)C2=C(CC[C@H]3C(C)(C)CCC[C@]23C)C1=O` (stereo in doubt), the inhibition is 10.2%.

In turn, `Cc1c(N)cncc1NC(=O)Cc1cccc(Cl)c1` displayed an IC50 of 8.2 µM.

Consider `O=C(c1cc(=O)[nH]c2ccccc12)N1CCN(c2cccc(C(F)(F)F)c2)CC1`, for which the IC50 worked out at 5.65 µM and the inhibition came to 71%.

Regarding `O=C(CCc1cccc(Cl)c1)Nc1cncc2ccccc12`, the IC50 worked out at 19.3 µM.

As to `Cc1ccncc1NC(=O)Cc1cc(Cl)cc(NC2(C)CCC(F)(F)CC2)c1`, the IC50 came to 45.5 µM.

`COc1ccc(OCc2ccccc2)cc1-c1cc(=O)c2ccccc2o1` came in with an inhibition of 7.52%.

For `CC[P](CC)(CC)=[Au][S][C@@H]1O[C@H](COC(C)=O)[C@@H](OC(C)=O)[C@H](OC(C)=O)[C@H]1OC(C)=O` (stereo in doubt), the inhibition amounted to 100%.

With `CNc1ccc(N(C(=O)Cn2nnc3ccccc32)c2cccc(Cl)c2)cc1`, the IC50 was found to be 10.6 µM.

With `O=C(Cn1nnc2ccccc21)N(Cc1cccc(Cl)c1)c1ccc(N2CCCCC2)cc1`, the IC50 is 6.02 µM.

In the case of `Cc1oncc1C(=O)Nc1ccc(C(F)(F)F)cc1`, the inhibition stood at 0%.

In turn, `N#CC(C(=O)Nc1ccccc1)C(=O)c1cccs1` (stereo unspecified) showed an inhibition of 0%.

Molecule `O=C(Cc1cncc2ccccc12)N1CCOc2ccc(Cl)cc21` had an IC50 of 3.66 µM.

Take `Cc1cc2c(c(O)c1-c1c(C)cc(O)c3c1C(=O)C=CC3=O)C(=O)C=CC2=O`: the IC50 amounted to 8.41 µM and the inhibition is 100%.

As to `COc1c(Cl)cccc1OCCNC(=O)c1cc(=O)[nH]c2ccccc12`, the IC50 came to 16.5 µM. In other words, the double-digit micromolar range.

Regarding `COc1ccc2c(=O)c(O)c(-c3ccc(OCc4ccccc4)c(OCc4ccccc4)c3)oc2c1`, the inhibition is 14.1%.

As for `Cc1ccncc1NC(=O)Cc1cc(Cl)cc(OC2COC2)c1`, the IC50 was determined as 15.3 µM.

In turn, `O=C(c1cc(=O)[nH]c2ccccc12)N1CCN(c2cccc(Cl)c2)CC1` returned a 50% inhibitory concentration (IC50) of 2.19 µM and an inhibition of 65.7%.

As for `Cc1noc(COc2cc(Cl)cc(CC(=O)Nc3cnccc3C)c2)n1`, the IC50 was 24.3 µM.

`Cc1nc(CN2C(=O)C(=O)c3cc(Br)ccc32)cs1` returned an IC50 of 18 µM.
